System: HepG2 PCSK9 mRNA qRT-PCR, time course 0.5-28 h
Assay: PCSK9 mRNA reduction over time, late-stage follow-up, mechanism study for Trib1 inducer project, cell-based, HepG2, RT-PCR, time course (AID 1053159)
Conditions: dose 2.5; hits give low values

`CN1C(=O)c2cc(NC(=O)c3ccc(C(F)(F)F)cc3)ccc2OC[C@@H]2O[C@H](CC(=O)NC3Cc4ccccc4C3)CC[C@@H]21` was tested, and the relative PCSK9 expression was 19%.

From PubChem BioAssay AID1053159 (Broad Institute, 2014)
